The target in one test is Acetylcholinesterase (Tetronarce californica, UniProt P04058). Nature of the test: Enzyme Inhibition Assay. Conditions: 30 °C. As for the experimental part: (§1) AChE and BChE inhibitory activities were measured in vitro by a modified spectrophotometric method. all the inhibition studies were performed using a Spectra Max microplate spectrophotometer from Molecular Devices, CA, USA.

For test [1], the target named is Carboxylic ester hydrolase (Equus caballus, UniProt Q9N1N9). Nature of the test: Enzyme Inhibition Assay. The following applies: 30 °C. As to the method: as §1
Carboxylic ester hydrolase, sequence (Q9N1N9 whole entry): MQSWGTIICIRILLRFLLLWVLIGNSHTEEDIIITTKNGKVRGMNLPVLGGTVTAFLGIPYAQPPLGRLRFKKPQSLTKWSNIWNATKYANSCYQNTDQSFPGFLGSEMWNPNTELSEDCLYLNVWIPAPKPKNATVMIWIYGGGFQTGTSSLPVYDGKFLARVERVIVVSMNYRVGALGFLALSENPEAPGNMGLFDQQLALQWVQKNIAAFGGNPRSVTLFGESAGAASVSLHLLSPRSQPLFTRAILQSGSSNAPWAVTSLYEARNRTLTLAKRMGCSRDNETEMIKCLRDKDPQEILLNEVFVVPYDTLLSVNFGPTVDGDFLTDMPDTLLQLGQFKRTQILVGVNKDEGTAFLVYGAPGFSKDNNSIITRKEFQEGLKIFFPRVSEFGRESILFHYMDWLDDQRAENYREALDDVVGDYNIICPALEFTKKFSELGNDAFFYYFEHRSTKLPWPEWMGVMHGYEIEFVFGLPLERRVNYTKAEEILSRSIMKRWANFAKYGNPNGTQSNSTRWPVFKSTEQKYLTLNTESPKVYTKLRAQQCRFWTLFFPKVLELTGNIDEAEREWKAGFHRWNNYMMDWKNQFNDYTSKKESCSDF

Each structure is given as a SMILES string. pKi: −log10 of the molar value.

Acetylcholinesterase, sequence (P04058 whole entry): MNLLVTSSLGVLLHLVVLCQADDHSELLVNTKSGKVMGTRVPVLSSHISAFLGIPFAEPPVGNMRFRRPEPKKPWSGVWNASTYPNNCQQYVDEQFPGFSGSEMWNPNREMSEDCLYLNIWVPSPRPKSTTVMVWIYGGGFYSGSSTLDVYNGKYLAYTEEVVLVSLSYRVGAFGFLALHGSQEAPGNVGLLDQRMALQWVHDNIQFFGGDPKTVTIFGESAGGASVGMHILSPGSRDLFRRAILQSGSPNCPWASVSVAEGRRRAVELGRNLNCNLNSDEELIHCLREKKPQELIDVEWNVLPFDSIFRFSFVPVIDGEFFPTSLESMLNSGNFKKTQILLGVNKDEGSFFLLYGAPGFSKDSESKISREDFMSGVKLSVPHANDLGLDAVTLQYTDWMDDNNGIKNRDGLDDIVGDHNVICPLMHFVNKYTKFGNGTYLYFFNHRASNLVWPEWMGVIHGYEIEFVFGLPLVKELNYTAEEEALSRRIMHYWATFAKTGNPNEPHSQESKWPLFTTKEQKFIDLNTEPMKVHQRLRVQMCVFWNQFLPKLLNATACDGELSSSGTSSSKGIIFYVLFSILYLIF

For `Cn1c2c(c(=O)c3ccccc31)C[C@@H](O)C(C)(C)O2` [Ribalinine, 3], the pKi at Acetylcholinesterase is 4.52; in test [1], 4.15.
On to `COc1ccc2c3c1O[C@H]1C[C@@H](O)C=C[C@@]31CCN(C)C2` [galantamine], for which, in test [1], the negative-log Ki (pKi) was 4.49.
Take `COC(C)(C)[C@H]1Cc2c(n(C)c3ccccc3c2=O)O1` [Methyl isoplatydesmine, 4]: the pKi at Acetylcholinesterase is 4.52; in test [1] it was 4.72.

Source of the values: BindingDB's records for doi:10.1080/14756360600889708 (University of Karachi, 2006).
